Test results as given in patent publication US9340559B2, “Proteasome inhibitor delanzomib for use in the treatment of lupus” (Cephalon, Inc., priority 2011, dated 2016).

Legend:
Format in all cases: in vivo, mouse
MRL/lpr mice = assay: Luminex analysis of serum cytokines (IL-12p40/p70, IL-1β, TNFα), MRL/lpr mice
Procedure: For the processing of serum samples for cytokine analysis, frozen plasma at −80° C. is thawed on ice, vortexed, and centrifuged for 10 minutes to remove debris and aggregates. A total of 25-50 μL of serum is used for Luminex® assays following the manufacturer's instructions. Ten different mouse cytokines are measured using the mouse cytokine 10-plex bead kit (Invitrogen, Carlsbad, Calif., no. LMC0001). Briefly, filter plates (Millipore, Billerica, Mass., no. MAIPSWU10), are pre-wet with 200 μL of wash solution (kit component) and 25 μL of beads are added per well. Serum samples are diluted and a total volume of 50 μL is added per well (ie, 25 μL of sample serum plus 25 μL of assay diluent as provided by the manufacturer). Plates with beads are incubated for 2 hours at room temperature (RT) on an orbital shaker in the dark. At the end of the incubation, plate(s) are washed twice in kit buffer, secondary biotinylated antibody is added at a 1:10 dilution (100 μL) in biotin diluent provided with the kit. Plates are incubated at RT for 1 hour in the dark then washed twice in kit buffer. Strepavidin in assay diluent is added at 100 μL per well, then incubated for 30 minutes at RT in the dark. The plates are washed 3 times then 100 μL of kit wash solution is added and agitated for 2-3 minutes at RT in the dark. Plates are run immediately following this incubation period on a Luminex xMAP 200 unit with data acquisition and analysis software (Invitrogen, San Diego, Calif., no. MAP0200). All bead washing is performed using a vacuum manifold unit (Pall, Ann Arbor, Mich. no. 5017). For all cytokine Luminex assays, values below the limit of detection set by the lowest point along the standard or set by the manufacturer are considered out of range and are not estimated, but assumed the lowest point along the standard curve for that particular assay.
Mice are tracked on an individual basis.
Vehicle alone is provided orally twice weekly (p.o.). Both proteasome inhibitors are suspended in the vehicle solution. […] In addition, urine proteinuria is determined for all animals.
Vehicle was 3% DMSO/10% Solutol/87% PBS.

NZM mice [1] = assay: Antibody secreting B-cell Elispot (anti-chromatin, total IgG ASC), spleens of NZM mice (Example 2)
Procedure: FIG. 34 depicts the frequency of anti-chromatin antibody secreting cells in the spleens of NZM mice. NZM treated mice spleens were processed for splenocytes for ex vivo Elispot assays. Elispot wells were coated with 10 μg/mL of boiled chicken chromatin or ovalbumin protein. Fresh, whole splenocytes were added to each well at 50,000 cells per well in cell culture medium. Cells were incubated overnight at 37° C. Developed wells provided spots that were counted as frequency of ASCs per million splenocytes.
FIG. 35 depicts the frequency of total IgG antibody secreting cells in the spleens of NZM mice. NZM treated mice spleens were processed for splenocytes for ex vivo Elispot assays. Elispot wells were coated with 10 μg/mL of anti-mouse IgG, IgH, and IgL chains. Fresh, whole splenocytes were added to each well at 50,000 cells per well in cell culture medium. Cells were incubated overnight at 37° C. Developed wells provided spots that were counted as frequency of ASCs per million splenocytes.
B-cell Elispot components are ordered from MabTech (Nacka Strand, Sweden) and nitrocellulose IP filter plates are ordered from Millipore (Billerica, Mass.). Elispot wells are coated with either purified bovine thymus dsDNA (Sigma), purified bovine Smith antigen (GenWay) or boiled filtered purified chicken chromatin from lysed chicken red blood cells (Rockland, Gilbertsville, Pa.) at 10 μg/mL. Spleens are processed using glass homogenization (frosted slides). Dispersed cell contents are washed in sterile HBSS and RBCs lysed using 1×RBC lysis buffer (BioLegend, Cat #420301). Processed splenocytes are added to each well and are not stimulated with lipopolysaccharide (LPS) to avoid skewing of true ex vivo frequencies of antibody-secreting cell types (ASCs). Anti-mouse pan-IgG is used as a positive control for total IgG producing ASCs and is used to normalize results. Frequencies for each antigen are identified in an initial test phase for each model. For chromatin and total IgG only, 30,000 splenocytes are added to each well; for Smith antigen and dsDNA, 500,000 cells are added to each well. Different numbers of splenocytes are added for different antigens due to saturation limits of spot frequencies per well. B-cell Elispots are incubated overnight at 37° C. To develop each assay, secondary antibody is added to each well, incubated, washed and alkaline phosphatase strepavidin (Jackson ImmunoResearch, West Grove, Pa.) is used as the conjugate; substrate used is BCIP-NBT (MabTech, Cincinnati, Ohio). Plates are developed until spots are visible. All Elispot analyses are performed using an Immunospot C.T.L. scanner and Biospot software (Cellular Technology Ltd., Shaker Heights, Ohio). Results are shown as values from which media and cells only wells are subtracted. Some values are negative due to high background.

NZM mice [2] = details: G1 3 mg/kg 1× wk ip

## CC(C)C[C@H](NC(=O)[C@@H](NC(=O)c1cccc(-c2ccccc2)n1)[C@@H](C)O)B(O)O [COMPOUND A, [(1R)-1-[[(2S,3R)-3-hydroxy-2-[6-phenyl-pyridine-2-carbonyl)amino]-1-oxobutyl]amino]-3-methylbutylboronic acid]
MRL/lpr mice; 3 mg/kg twice weekly, vehicle 16.8 pg/mL
  serum IL-1β by EOS: 5.7 pg/mL
MRL/lpr mice; G1: 3 mg/kg iv, 1× wk
  Cytokine AUC serum IL-1β, percent change vs vehicle: −56%
  Cytokine AUC serum IL-12, percent change vs vehicle: −48%
  Cytokine AUC serum TNFα, percent change vs vehicle: −62%
MRL/lpr mice; G2: 3 mg/kg iv, 2× wk
  Cytokine AUC serum IL-1β, percent change vs vehicle: −61%
  Cytokine AUC serum IL-12, percent change vs vehicle: −72%
  Cytokine AUC serum TNFα, percent change vs vehicle: −79%
MRL/lpr mice; G3: 10 mg/kg po, 2× wk
  Cytokine AUC serum IL-1β, percent change vs vehicle: −58%
  Cytokine AUC serum IL-12, percent change vs vehicle: −62%
  Cytokine AUC serum TNFα, percent change vs vehicle: −71%
NZM mice [1]; COMPOUND A groups
  anti-chromatin ASC decrease vs vehicle: 96-100%
NZM mice [1]; G1 3 mg/kg 1× wk ip
  p, frequency of anti-chromatin antibody secreting cells in spleen vs G5 Bortezomib 0.3 mg/kg 1× wk ip: p < 0.001
  p, frequency of anti-chromatin antibody secreting cells in spleen vs G6 Bortezomib 0.3 mg/kg 2× wk ip: p < 0.01
  p, frequency of anti-chromatin antibody secreting cells in spleen vs G8 Dex 1.5 mg/kg 3× wk ip: p < 0.01
  p, frequency of anti-chromatin antibody secreting cells in spleen vs G9 Vehicle 1× wk ip: p < 0.01
  p, frequency of total IgG antibody secreting cells in spleen vs G5 Bortezomib 0.3 mg/kg 1× wk ip: p < 0.01
  p, frequency of total IgG antibody secreting cells in spleen vs G7 CTX 50 mg/kg 1× wk ip: p < 0.01
  p, frequency of total IgG antibody secreting cells in spleen vs G8 Dex 1.5 mg/kg 3× wk ip: p < 0.01
  p, frequency of total IgG antibody secreting cells in spleen vs G9 Vehicle 1× wk ip: p < 0.05
NZM mice [1]; G1 3 mg/kg ip, 1× wk
  ASC chromatin EOS, percent change vs vehicle: −96%
  ASC total IgG EOS, percent change vs vehicle: −62%
NZM mice [1]; G2 3 mg/kg 2× wk ip
  p, frequency of anti-chromatin antibody secreting cells in spleen vs G5 Bortezomib 0.3 mg/kg 1× wk ip: P < 0.01
  p, frequency of anti-chromatin antibody secreting cells in spleen vs G6 Bortezomib 0.3 mg/kg 2× wk ip: p < 0.05
  p, frequency of anti-chromatin antibody secreting cells in spleen vs G9 Vehicle 1× wk ip: p < 0.01
  p, frequency of total IgG antibody secreting cells in spleen vs G5 Bortezomib 0.3 mg/kg 1× wk ip: p < 0.001
  p, frequency of total IgG antibody secreting cells in spleen vs G7 CTX 50 mg/kg 1× wk ip: p < 0.01
  p, frequency of total IgG antibody secreting cells in spleen vs G8 Dex 1.5 mg/kg 3× wk ip: p < 0.01
  p, frequency of total IgG antibody secreting cells in spleen vs G9 Vehicle 1× wk ip: p < 0.01
NZM mice [1]; G2 3 mg/kg ip, 2× wk
  ASC chromatin EOS, percent change vs vehicle: −100%
  ASC total IgG EOS, percent change vs vehicle: −67%
NZM mice [1]; spleen
  total IgG producing ASC decrease vs vehicle: 62-67%
NZM mice [2]
  p, serum IL-12p40/p70 concentration vs G5 Bortezomib 0.3 mg/kg 1× wk ip: NS (NS = not significant (p > 0.05))
  p, serum IL-12p40/p70 concentration vs G6 Bortezomib 0.3 mg/kg 2× wk ip: NS (NS = not significant (p > 0.05))
  p, serum IL-12p40/p70 concentration vs G7 CTX 50 mg/kg 1× wk ip: NS (NS = not significant (p > 0.05))
  p, serum IL-12p40/p70 concentration vs G8 Dex 1.5 mg/kg 3× wk ip: NS (NS = not significant (p > 0.05))
  p, serum IL-12p40/p70 concentration vs G9 Vehicle 1× wk ip: p < 0.001
  p, serum IL-13 concentration vs G5 Bortezomib 0.3 mg/kg 1× wk ip: NS (NS = not significant (p > 0.05))
  p, serum IL-13 concentration vs G6 Bortezomib 0.3 mg/kg 2× wk ip: NS (NS = not significant (p > 0.05))
  p, serum IL-13 concentration vs G7 CTX 50 mg/kg 1× wk ip: p < 0.001
  p, serum IL-13 concentration vs G8 Dex 1.5 mg/kg 3× wk ip: NS (NS = not significant (p > 0.05))
  p, serum IL-13 concentration vs G9 Vehicle 1× wk ip: NS (NS = not significant (p > 0.05))
  p, serum IL-17A concentration vs G5 Bortezomib 0.3 mg/kg 1× wk ip: NS (NS = not significant (p > 0.05))
  p, serum IL-17A concentration vs G6 Bortezomib 0.3 mg/kg 2× wk ip: p < 0.01
  p, serum IL-17A concentration vs G7 CTX 50 mg/kg 1× wk ip: p < 0.001
  p, serum IL-17A concentration vs G8 Dex 1.5 mg/kg 3× wk ip: NS (NS = not significant (p > 0.05))
  p, serum IL-17A concentration vs G9 Vehicle 1× wk ip: NS (NS = not significant (p > 0.05))
  p, serum IP-10 concentration vs G5 Bortezomib 0.3 mg/kg 1× wk ip: NS (NS = not significant (p > 0.05))
  p, serum IP-10 concentration vs G6 Bortezomib 0.3 mg/kg 2× wk ip: NS (NS = not significant (p > 0.05))
  p, serum IP-10 concentration vs G7 CTX 50 mg/kg 1× wk ip: p < 0.001
  p, serum IP-10 concentration vs G8 Dex 1.5 mg/kg 3× wk ip: NS (NS = not significant (p > 0.05))
  p, serum IP-10 concentration vs G9 Vehicle 1× wk ip: NS (NS = not significant (p > 0.05))
  p, serum MIG concentration vs G5 Bortezomib 0.3 mg/kg 1× wk ip: NS (NS = not significant (p > 0.05))
  p, serum MIG concentration vs G6 Bortezomib 0.3 mg/kg 2× wk ip: NS (NS = not significant (p > 0.05))
  p, serum MIG concentration vs G7 CTX 50 mg/kg 1× wk ip: p < 0.001
  p, serum MIG concentration vs G8 Dex 1.5 mg/kg 3× wk ip: NS (NS = not significant (p > 0.05))
